Patent US20240025900A1, “TETRACYCLIC COMPOUNDS AS DGK INHIBITORS” (Incyte Corporation, priority 2022, published 2024)

Columns and labels:
DGKα = DGKα (Homo sapiens (Human), UniProt P23743); experiment: In vitro DGKα inhibition assay (ADP-Glo); format: biochemical; conditions: His-tagged human recombinant DGKα 0.1 nM, 50 μM ATP, 20 μM DLG
Description: (§1) The DGKα and DGKζ biochemical reactions were performed using His-tagged human recombinant enzymes (Signal Chem, DGKα, #D21-10BH; DGKζ, #D30-10H)) and DLG (Dilauroyl-sn-glycerol) lipid substrate (Signal Chem, #D430-59). ADP-Glo assay was performed using ADP-Glo™ kinase Assay kit (Promega, #V9104). The reactions were carried out in assay buffer containing 40 mM Tris, pH 7.5, 0.1% CHAPS, 0.1% Prionex, 40 mM NaCl, 5 mM MgCl2, 1 mM CaCl2, and 1 mM DTT. DGKα reactions contained 0.1 nM DGKα, 50 μM ATP, and 20 μM DLG. And DGKζ reactions contained 0.4 nM DGKζ, 30 μM ATP, and 20 μM DLG.
(§2) For compound inhibition studies, 40 nL test compound in DMSO was added to wells of white polystyrene plates in 384-well (Greiner, #784075) or 1536-well format (Greiner, #782075). Compounds were added with top concentration of 2 mM with 11 point, 3-fold dilution series. Enzyme solution (contains 2×DGK enzyme concentration in 1× assay buffer) was added to the plate in 2 μL/well volume, followed by 2 μL/well of substrate solution (contains 2×concentration of ATP and DLG substrate in 1× assay buffer). Plates were then centrifuged for 1 min at 1200 RPM and sealed or lidded. For 4 μL reaction volume, test compounds were therefore diluted 100× to final top concentration of 20 μM. After 90 minute incubation, reactions were quenched by addition of 2 μL/well Promega ADP-Glo Reagent, followed by centrifugation and lidding. After 60 min incubation, 2 μL/well Promega Kinase Detection Reagent was added, plates centrifuged, and incubated for 30 min. Plates were then read using Luminescence method on BMG PHERAstar FSX plate reader. Percent inhibition was calculated and IC50s were determined using 4-parameter fit in Genedata Screener. Labcyte Echo acoustic dispenser was used for compound addition, and Formulatrix Tempest liquid handler was used for all reagent dispenses.

DGKζ = DGKζ (Homo sapiens (Human), UniProt Q13574); experiment: In vitro DGKζ inhibition assay (ADP-Glo); format: biochemical; conditions: His-tagged human recombinant DGKζ 0.4 nM, 30 μM ATP, 20 μM DLG
Description: as §1, §2

Chain of DGKζ (Q13574 whole entry): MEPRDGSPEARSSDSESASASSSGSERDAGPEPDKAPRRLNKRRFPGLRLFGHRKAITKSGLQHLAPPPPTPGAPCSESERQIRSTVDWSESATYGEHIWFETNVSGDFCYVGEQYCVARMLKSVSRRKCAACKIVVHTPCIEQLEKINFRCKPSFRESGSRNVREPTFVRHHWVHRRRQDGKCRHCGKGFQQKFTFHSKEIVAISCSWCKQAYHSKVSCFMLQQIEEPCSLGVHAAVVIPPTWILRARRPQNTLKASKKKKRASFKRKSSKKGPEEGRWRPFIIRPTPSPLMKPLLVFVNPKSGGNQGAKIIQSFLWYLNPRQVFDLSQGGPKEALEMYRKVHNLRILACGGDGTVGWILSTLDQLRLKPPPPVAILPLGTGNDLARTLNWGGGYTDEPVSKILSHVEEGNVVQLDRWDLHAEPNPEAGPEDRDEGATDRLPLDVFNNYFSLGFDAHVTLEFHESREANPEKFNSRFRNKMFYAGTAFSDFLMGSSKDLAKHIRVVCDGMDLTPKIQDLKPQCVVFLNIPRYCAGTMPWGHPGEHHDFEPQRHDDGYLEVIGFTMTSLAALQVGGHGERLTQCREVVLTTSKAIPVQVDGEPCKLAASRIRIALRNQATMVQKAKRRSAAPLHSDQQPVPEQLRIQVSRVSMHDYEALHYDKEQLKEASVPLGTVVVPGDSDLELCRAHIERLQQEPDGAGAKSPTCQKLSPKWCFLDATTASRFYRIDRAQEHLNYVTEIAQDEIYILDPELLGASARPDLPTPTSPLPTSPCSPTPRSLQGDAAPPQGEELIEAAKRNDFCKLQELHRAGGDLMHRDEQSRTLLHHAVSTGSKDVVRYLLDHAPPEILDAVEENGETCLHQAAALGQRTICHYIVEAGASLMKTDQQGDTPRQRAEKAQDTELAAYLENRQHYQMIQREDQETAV
Chain of DGKα (P23743 whole entry): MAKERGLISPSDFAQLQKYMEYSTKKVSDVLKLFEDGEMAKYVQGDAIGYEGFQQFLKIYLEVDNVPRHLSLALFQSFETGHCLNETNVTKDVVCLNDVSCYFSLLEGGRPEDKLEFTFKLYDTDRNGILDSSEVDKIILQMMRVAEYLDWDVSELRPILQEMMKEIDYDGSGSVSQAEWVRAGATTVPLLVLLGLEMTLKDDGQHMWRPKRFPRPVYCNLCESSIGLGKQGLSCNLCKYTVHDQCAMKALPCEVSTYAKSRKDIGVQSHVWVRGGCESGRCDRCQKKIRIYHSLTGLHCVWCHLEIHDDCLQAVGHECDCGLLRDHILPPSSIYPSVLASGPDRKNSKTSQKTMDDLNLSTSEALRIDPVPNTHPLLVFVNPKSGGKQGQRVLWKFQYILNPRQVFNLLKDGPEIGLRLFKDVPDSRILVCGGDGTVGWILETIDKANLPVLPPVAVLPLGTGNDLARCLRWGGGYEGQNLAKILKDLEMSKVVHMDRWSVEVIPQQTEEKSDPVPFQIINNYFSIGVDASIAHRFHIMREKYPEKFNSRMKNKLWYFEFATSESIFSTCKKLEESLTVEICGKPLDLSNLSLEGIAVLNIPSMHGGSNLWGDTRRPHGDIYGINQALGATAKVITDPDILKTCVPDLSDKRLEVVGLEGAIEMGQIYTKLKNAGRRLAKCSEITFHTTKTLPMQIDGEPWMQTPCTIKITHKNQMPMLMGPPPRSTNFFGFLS

SMILES | IC50 (DGKα) [nM] | IC50 (DGKζ) [nM]
CN1C(=O)CC2CN(C(c3ccc(F)cc3)c3ccc(F)cc3)CCN2c2c1c(=O)n(C)c1ccc(C#N)nc21 (single isomer, unassigned) [Example 1, 11-(Bis(4-fluorophenyl)methyl)-5,7-dimethyl-6,8-dioxo-5,6,7,8,9,9a,10,11,12,13-decahydropyrazino[1′,2′: 4,5][1,4]diazepino[2,3-c][1,5]naphthyridine-2-carbonitrile] | ≤ 40 | 200 to 2000
CN1C(=O)CC2CN(C(c3ccc(F)cc3)c3ccc(F)cc3)CCN2c2c1c(=O)n(C)c1ccc(C#N)nc21 (single isomer, unassigned) [Example 2, 11-(Bis(4-fluorophenyl)methyl)-5,7-dimethyl-6,8-dioxo-5,6,7,8,9,9a,10,11,12,13-decahydropyrazino[1′,2′: 4,5][1,4]diazepino[2,3-c][1,5]naphthyridine-2-carbonitrile] | 40 to 200 | ≤ 40
Cn1c(=O)c2c(c3nc(C#N)ccc31)N1CCN(C(c3ccc(F)cc3)c3ccc(F)cc3)C[C@@H]1COC2=O [Example 3, (R)-11-(Bis(4-fluorophenyl)methyl)-5-methyl-6,7-dioxo-5,7,9,9a,10,11,12,13-octahydro-6H-pyrazino[2′,1′:3,4][1,4]oxazepino[6,5-c][1,5]naphthyridine-2-carbonitrile] | ≤ 40 | ≤ 40
Cn1c(=O)c2c(c3nc(CC#N)ccc31)N1CCN(C(c3ccc(F)cc3)c3ccc(F)cc3)C[C@@H]1COC2=O [Example 4, (R)-2-(11-(Bis(4-fluorophenyl)methyl)-5-methyl-6,7-dioxo-5,7,9,9a,10,11,12,13-octahydro-6H-pyrazino[2′,1′:3,4][1,4]oxazepino[6,5-c][1,5]naphthyridin-2-yl)acetonitrile] | ≤ 40 | ≤ 40
Cn1c(=O)c2c(c3nc(CC#N)cnc31)N1CCN(C(c3ccc(F)cc3)c3ccc(F)cc3)C[C@@H]1COC2=O [Example 5, (R)-2-(11-(Bis(4-fluorophenyl)methyl)-5-methyl-6,7-dioxo-5,7,9,9a,10,11,12,13-octahydro-6H-pyrazino[2,1-c]pyrazino[2′,3′: 5,6]pyrido[4,3-e][1,4]oxazepin-2-yl)acetonitrile] | 40 to 200 | 40 to 200

Second part, the compound after the results:

IC50 (DGKα) [nM] | IC50 (DGKζ) [nM] | SMILES
≤ 40 | ≤ 40 | Cn1c(=O)c2c(c3nc(C#N)ccc31)N1CCN(C(c3ccc(F)cc3)c3ccc(F)cc3)C[C@H]1COC2=O [Example 6, (S)-11-(Bis(4-fluorophenyl)methyl)-5-methyl-6,7-dioxo-5,7,9,9a,10,11,12,13-octahydro-6H-pyrazino[2′,1′:3,4][1,4]oxazepino[6,5-c][1,5]naphthyridine-2-carbonitrile]
≤ 40 | 200 to 2000 | C[C@@H]1CN2c3c(c(=O)n(C)c4ccc(C#N)nc34)C(=O)OC[C@H]2CN1C(c1ccc(F)cc1)c1ccc(F)cc1 [Example 7, (9aR,12R)-11-(Bis(4-fluorophenyl)methyl)-5,12-dimethyl-6,7-dioxo-5,7,9,9a,10,11,12,13-octahydro-6H-pyrazino[2′,1′:3,4][1,4]oxazepino[6,5-c][1,5]naphthyridine-2-carbonitrile]
– | 40 to 200 | Cn1c(=O)c2c(c3cc(CC#N)ccc31)N1CCN(C(c3ccc(F)cc3)c3ccc(F)cc3)C[C@@H]1COC2=O [Example 8, (R)-2-(3-(Bis(4-fluorophenyl)methyl)-9-methyl-7,8-dioxo-1,2,3,4,4a,5,8,9-octahydro-7H-pyrazino[2′,1′:3,4][1,4]oxazepino[6,5-c]quinolin-12-yl)acetonitrile]
≤ 40 | > 2000 | Cn1c(=O)c2c(c3ncc(C#N)cc31)N1CCN(C(c3ccc(F)cc3)c3ccc(F)cc3)C[C@@H]1COC2=O [Example 9, (R)-11-(Bis(4-fluorophenyl)methyl)-5-methyl-6,7-dioxo-5,7,9,9a,10,11,12,13-octahydro-6H-pyrazino[2′,1′:3,4][1,4]oxazepino[6,5-c][1,5]naphthyridine-3-carbonitrile]
– | > 2000 | Cn1c(=O)c2c(c3ncc(CC#N)cc31)N1CCN(C(c3ccc(F)cc3)c3ccc(F)cc3)C[C@@H]1COC2=O [Example 10, (R)-2-(11-(Bis(4-fluorophenyl)methyl)-5-methyl-6,7-dioxo-5,7,9,9a,10,11,12,13-octahydro-6H-pyrazino[2′,1′:3,4][1,4]oxazepino[6,5-c][1,5]naphthyridin-3-yl)acetonitrile]
